Where a name gives a salt, the structure may show the parent alone. Read-outs that look alike come from different tables or passages of the source.
How the values were obtained:
[1] = tested on: metastatic (Stage III-IV) breast cancer; test: Amlexanox in women with metastatic breast cancer whose primary tumors are removed surgically (Example 7); format: in vivo, human; settings: 500 mg orally twice a day; baseline until nine months after administration and follow-up
Protocol: In this study, 44 women with metastatic (Stage III-IV) breast cancer whose primary tumors are removed surgically are treated by orally administering 500 mg amlexanox twice a day. The total dose, per patient, is 1,000 mg daily. Baseline assessments are performed at the start of the treatment (treated group) and these baseline results are compared with repeat assessments during various follow-up periods of this treatment. The treatment is conducted for at least ten consecutive days and it is continued further until substantial progression of the disease is noted. The study, which includes treatment of all patients and their follow-up, lasts for at least nine months or until disease progression in the last patient with responding or stable disease. […] In carrying out this study, the response rate and one year survival data for each of the patients in the treated group is determined and compared with an untreated group. […] If there is a delay of the substantial progression of the disease, then treatment is stopped when it is determined that substantial progression of the disease in that patient resumes. […] One week after the first administration of amlexanox, patients are clinically evaluated (adverse event review, concomitant medication and concurrent illness) and the following laboratory evaluations are conducted: hematology, blood chemistry and urinalysis. […]

[2] = Pharmacokinetics and bioavailability in normal mice; format: in vivo, mouse; settings: for AUC / Cmax / MRT / clearance / half-life / Vd / bioavailability: female; for Vd: read-out: Vss; for bioavailability: C57BL/6, plasma, po, mouse, sodium salt, read-out: Bioavailability for oral administration
Protocol: Female C57BL/6 mice were used at 6 to 7 weeks of age. The animals were given food (Purina mouse chow, Pro Lab PMH 4018, Trademark of Agway, Syracuse, N.Y., USA) and water ad libitum. The mice were kept at five per cage under light (12 h light/dark cycle) and temperature (22±1° C.) controlled environment. The animal studies were conducted according to the “Guidelines for Care and Use of Experimental Animals”.
Amlexanox sodium salt dosing solutions for oral administration were prepared by dissolving amlexanox sodium salt, prepared according to Example 10, in distilled water. amlexanox sodium salt dosing solutions for i.v. administration were prepared by dissolving amlexanox sodium salt, prepared according to Example 10, in isotonic solution (0.9% NaCl). Amlexanox meglumine formulation dosing solutions for oral administration were prepared by dissolving amlexanox meglumine formulation F1, prepared according to Example 12, in distilled water. Amlexanox meglumine formulation dosing solutions for i.v. administration were prepared by dissolving amlexanox meglumine formulation F1, prepared according to Example 13, in isotonic solution (0.9% NaCl). 1 mg/mL solution of amlexanox was used for dosing 10 mg/kg, and 10 mg/mL solution was used for dosing 100 mg/kg.
Amlexanox-X dosing solutions were administered i.v. and orally in normal mice (four animals per each time point). After various time intervals (15, 30 min and 1, 3, 6 and 8 h for Amlexanox-X Na salt and 15, 30 min, 1, 2 and 6 h for Amlexanox-X+MG) post-injection, blood and major organs (liver, kidney, lung and brain) were collected. Then, blood was immediately centrifuged, and plasma was separated. The plasma and tissue samples were immediately frozen in dry ice and stored at −80° C. until further use.
The defrosted plasma samples were centrifuged at 2000 g for 5 min, and aliquots (10 μL) of each sample were transferred into 1.5-ml plastic tubes. The samples were diluted with PBS in various amounts of times and aliquots of 100 μL were transferred into the other 1.5-ml plastic tubes. The samples were extracted with 1 mL of 100% acetonitrile for 10 min on 180° rotator. Then, the tubes were centrifuged at 10,000 g for 15 min.
The supernatant was separated to glass tubes and evaporated in a stream of nitrogen at […]. until dryness. The dried samples were kept at −20° C. until HPLC analysis. The samples were reconstituted in 100 μL of mobile phase analyze before analyze by HPLC.
The samples were analysed by HPLC using 250×4.6 mm, Phenomenex C18 Luna, 5 micron column, 1 mL/min flow rate of mobile phase 73% of 25 mM sodium phosphate pH 7.5 and 27% acetonitrile; fluorescent deyection λexcitation=348 nm, λemission=404 nm.
The concentrations of amlexanox in samples were determined by comparison with calibration curve obtained from spiked mouse plasma samples using the same analytical method. The areas under the curves (AUC) of amlexanox were calculated by trapezoidal method. Main pharmacokinetic parameters of amlexanox and bioavailability if amlexanox Na salt and amlexanox with meglumine formulation are shown in Tables below.

[3] = C57BL/6, iv, mouse plasma, i.v., 10 mg/kg
[4] = C57BL/6, iv, mouse plasma, i.v., 100 mg/kg
[5] = C57BL/6, mouse plasma, oral, 10 mg/kg
[6] = C57BL/6, mouse plasma, oral, 100 mg/kg

CC(C)c1ccc2oc3nc(N)c(C(=O)O)cc3c(=O)c2c1 [Amlexanox, 2-amino-7-isopropyl-1-azaxanthone-3-carboxylic acid]
percentage of patients with little or no progression of the disease, compared to the non-treated group [1]: greater percentage of the patients in the group of patients treated with the amlexanox show little or no progression of the disease

CC(C)c1ccc2oc3nc(N)c(C(=O)O)cc3c(=O)c2c1 [Amlexanox (salt), 2-amino-7-isopropyl-1-azaxanthone-3-carboxylic acid sodium salt]
AUC [2, 3]: 31.3 µg·h/mL
Cmax [2, 3]: 55.7 µg/mL
MRT [2, 3]: 0.5 h
clearance [2, 3]: 5 mL/min/kg
half-life [2, 3]: 0.4 h
Vd [2, 3]: 0.2 L/kg
AUC [2, 4]: 734 µg·h/mL
Cmax [2, 4]: 590 µg/mL
MRT [2, 4]: 1.2 h
clearance [2, 4]: 0.167 mL/min/kg
half-life [2, 4]: 0.8 h
Vd [2, 4]: 0.02 L/kg
bioavailability ([2]; 10 mg/kg): 61.7%
bioavailability ([2]; 100 mg/kg): 41.1%
AUC [2, 5]: 19.3 µg·h/mL
Cmax [2, 5]: 17.6 µg/mL
MRT [2, 5]: 1.6 h
half-life [2, 5]: 1.1 h
AUC [2, 6]: 302 µg·h/mL
Cmax [2, 6]: 206 µg/mL
MRT [2, 6]: 2.2 h
half-life [2, 6]: 1.5 h
CL ([2]; mouse plasma, oral, 10 mg/kg): 8.3 mL/min/kg
Vss ([2]; mouse plasma, oral, 10 mg/kg): 0.8 L/kg
Vss ([2]; mouse plasma, oral, 100 mg/kg): 0.07 L/kg
